Our source for the Ki and Ratio values is ChEMBL document CHEMBL1129628, “Effect of ring size or an additional heteroatom on the potency and selectivity of bicyclic benzylamine-type inhibitors of phenylethanolamine N-methyltransferase” (J Med Chem, 1996).

Each structure is given as a SMILES string.

Test [1] concerns the target T1, Phenylethanolamine N-methyltransferase (Bos taurus, UniProt P10938).
T1 sequence (P10938 whole entry): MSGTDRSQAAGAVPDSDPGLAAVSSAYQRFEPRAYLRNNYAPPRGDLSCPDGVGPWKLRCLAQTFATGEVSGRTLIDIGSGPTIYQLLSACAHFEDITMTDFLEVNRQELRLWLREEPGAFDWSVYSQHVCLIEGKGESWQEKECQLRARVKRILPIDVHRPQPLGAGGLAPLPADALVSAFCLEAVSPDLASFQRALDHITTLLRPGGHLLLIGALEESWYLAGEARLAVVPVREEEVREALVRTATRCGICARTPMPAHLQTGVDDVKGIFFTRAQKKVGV
Nature of the test: In vitro for inhibition of Phenylethanolamine N-Methyltransferase (PNMT).

Test [2] deals with T2, Adrenergic receptor alpha-2 (Rattus norvegicus, UniProt P22086+P19328+P22909).
T2 sequence (P22086 whole entry): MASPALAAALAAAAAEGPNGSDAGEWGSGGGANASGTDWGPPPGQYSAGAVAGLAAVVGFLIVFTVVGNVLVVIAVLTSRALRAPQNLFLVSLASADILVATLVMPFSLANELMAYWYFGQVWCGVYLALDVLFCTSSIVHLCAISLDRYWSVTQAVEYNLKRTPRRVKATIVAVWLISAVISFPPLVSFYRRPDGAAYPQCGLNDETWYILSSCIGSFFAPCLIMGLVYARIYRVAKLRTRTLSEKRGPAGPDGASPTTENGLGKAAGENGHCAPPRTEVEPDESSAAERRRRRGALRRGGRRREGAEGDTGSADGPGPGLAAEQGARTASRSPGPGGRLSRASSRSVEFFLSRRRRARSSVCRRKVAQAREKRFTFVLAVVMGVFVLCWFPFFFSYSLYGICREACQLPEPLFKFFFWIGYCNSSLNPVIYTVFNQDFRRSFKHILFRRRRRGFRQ
T2 sequence (P19328 whole entry): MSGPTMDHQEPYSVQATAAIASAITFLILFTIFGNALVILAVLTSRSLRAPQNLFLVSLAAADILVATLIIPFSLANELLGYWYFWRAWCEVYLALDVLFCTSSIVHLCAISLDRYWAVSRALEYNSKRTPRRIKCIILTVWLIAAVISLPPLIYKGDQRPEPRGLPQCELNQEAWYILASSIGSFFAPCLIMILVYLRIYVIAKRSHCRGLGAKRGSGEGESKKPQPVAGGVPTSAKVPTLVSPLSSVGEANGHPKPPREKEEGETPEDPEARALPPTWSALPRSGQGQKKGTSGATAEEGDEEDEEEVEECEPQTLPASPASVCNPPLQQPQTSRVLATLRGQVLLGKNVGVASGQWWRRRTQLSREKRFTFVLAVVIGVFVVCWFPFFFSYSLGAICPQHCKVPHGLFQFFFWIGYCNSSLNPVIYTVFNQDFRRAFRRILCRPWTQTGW
T2 sequence (P22909 whole entry): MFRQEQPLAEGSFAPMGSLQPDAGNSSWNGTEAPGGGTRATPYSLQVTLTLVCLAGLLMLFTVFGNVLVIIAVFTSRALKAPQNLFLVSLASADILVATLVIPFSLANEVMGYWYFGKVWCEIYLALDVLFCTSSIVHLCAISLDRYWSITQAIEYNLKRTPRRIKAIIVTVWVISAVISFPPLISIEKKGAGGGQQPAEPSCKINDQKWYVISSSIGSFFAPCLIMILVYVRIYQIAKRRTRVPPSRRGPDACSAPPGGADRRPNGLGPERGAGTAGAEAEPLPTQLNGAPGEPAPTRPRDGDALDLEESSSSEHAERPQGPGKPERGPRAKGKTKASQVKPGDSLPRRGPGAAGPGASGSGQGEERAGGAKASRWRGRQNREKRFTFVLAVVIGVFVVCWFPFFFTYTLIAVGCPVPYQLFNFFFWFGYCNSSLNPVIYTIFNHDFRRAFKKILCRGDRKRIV
In words: In vitro for binding affinity against Alpha-2 adrenergic receptor by radioligand [3H]clonidine in rat.

The nature of test [3]: Selectivity ratio between Ki of alpha-2 adrenoceptor and Ki of PNMT.

As a reminder, the Ki is a measure of affinity in units of concentration, obtained from inhibition or displacement. A low value points to higher affinity.

Turning to `C[C@@H]1Cc2ccccc2CN1`, the Ki was 38.3 µM in test [1] and 6.2 µM in test [2]. For the same compound, the Ratio in test [3] was 0.16.
Take `CC1Cc2ccccc2CN1` (racemic): the Ki is 2.13 µM in test [1] and 0.84 µM in test [2]. Also, the Ratio in test [3] was determined as 0.39.
For `c1ccc2c(c1)CCNC2` [1,2,3,4-TETRAHYDROISOQUINOLINE], the figures for the Ki in test [1] and in test [2] were 9.67 µM and […], respectively. Moreover, in test [3], the Ratio stood at […].
Turning to `c1ccc2c(c1)CNCCN2`, the figures for the Ki in test [1] and in test [2] were 28 µM and 2.6 µM, respectively. The Ratio in test [3] stood at 0.093.
Taken in the same sequence, the figures for `c1ccc2c(c1)CNC2` were 231 µM, 0.82 µM and 0.0035.
`c1ccc2c(c1)CNCCS2`: the Ki in test [1] was determined as 4.1 µM; in test [2] it was 4.6 µM. For the same compound, the Ratio in test [3] was 1.1.
On to `c1ccc2c(c1)CCCNC2`, for which the Ki in test [1] stood at 3.34 µM; in test [2] it was 11 µM. Also, the Ratio in test [3] came out at 3.2.
`c1ccc2c(c1)CCCCNC2`: the Ki in test [1] stood at 21.3 µM; in test [2] it was 16 µM. The Ratio in test [3] was 0.73.
On to `C[C@H]1Cc2ccccc2CN1`, for which the Ki in test [1] was 1.01 µM; in test [2], 0.52 µM. In test [3], the Ratio turned out to be 0.51.
In the case of `NCc1ccccc1` [BENZYLAMINE], the Ki in test [1] was 179 µM; in test [2], 20 µM. The Ratio in test [3] was found to be 0.11.
In the case of `c1ccc2c(c1)CNCCO2`, the Ki stood at 21.2 µM in test [1] and 4.1 µM in test [2]. In test [3], the Ratio was determined as 0.19.
